Test results reported in PubChem BioAssay AID2060882 (Molecular Pharmacology Branch, DTP, NCI, 2025).

Test system: 898857-211-R-J1-PDC complex spheroids, growth % test/control
Assay: Anticancer human tumor 898857-211-R-J1-PDC patient-derived melanoma cell line growth inhibition [RAS]
Conditions: for IC50: curve of first compound; for viability, T/C: stronger effect = lower value
How it was run: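 Agents were tested in combination matrices in half-log decrements from a top concentration at or near clinical Cmax (10 microM if undetermined). Targets were multi-cell spheroids of tumour lines plus HUVEC and MSC stromal cells.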

[1] = second compound 0.000949 µM, first compound 0.000949 µM
[2] = second compound 0.000949 µM, first compound 0.003 µM
[3] = second compound 0.000949 µM, first compound 0.00949 µM
[4] = second compound 0.000949 µM, first compound 0.03 µM
[5] = second compound 0.000949 µM, first compound 0.0949 µM
[6] = second compound 0.000949 µM, first compound 0.3 µM
[7] = second compound 0.003 µM, first compound 0.000949 µM
[8] = second compound 0.003 µM, first compound 0.003 µM
[9] = second compound 0.003 µM, first compound 0.00949 µM
[10] = second compound 0.003 µM, first compound 0.03 µM
[11] = second compound 0.003 µM, first compound 0.0949 µM
[12] = second compound 0.003 µM, first compound 0.3 µM
[13] = second compound 0.00949 µM, first compound 0.000949 µM
[14] = second compound 0.00949 µM, first compound 0.003 µM
[15] = second compound 0.00949 µM, first compound 0.00949 µM
[16] = second compound 0.00949 µM, first compound 0.03 µM
[17] = second compound 0.00949 µM, first compound 0.0949 µM
[18] = second compound 0.00949 µM, first compound 0.3 µM
[19] = second compound 0.03 µM, first compound 0.000949 µM
[20] = second compound 0.03 µM, first compound 0.003 µM
[21] = second compound 0.03 µM, first compound 0.00949 µM
[22] = second compound 0.03 µM, first compound 0.03 µM
[23] = second compound 0.03 µM, first compound 0.0949 µM
[24] = second compound 0.03 µM, first compound 0.3 µM
[25] = second compound 0.0949 µM, first compound 0.000949 µM
[26] = second compound 0.0949 µM, first compound 0.003 µM
[27] = second compound 0.0949 µM, first compound 0.00949 µM
[28] = second compound 0.0949 µM, first compound 0.03 µM
[29] = second compound 0.0949 µM, first compound 0.0949 µM
[30] = second compound 0.0949 µM, first compound 0.3 µM
[31] = second compound 0.3 µM, first compound 0.000949 µM
[32] = second compound 0.3 µM, first compound 0.003 µM
[33] = second compound 0.3 µM, first compound 0.00949 µM
[34] = second compound 0.3 µM, first compound 0.03 µM
[35] = second compound 0.3 µM, first compound 0.0949 µM
[36] = second compound 0.3 µM, first compound 0.3 µM
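Also: spheroids exposed to compound for seven days before readout.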
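For viability, T/C in this document: 100% = DMSO vehicle control wells.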

In the case of `C=CC(=O)N1CCN(c2nc(OCC3CCCN3C)nc3c(F)c(-c4nc(N)cc(C)c4C(F)(F)F)c(Cl)cc23)C(C)C1` (stereo unspecified) + CCn1c(-c2cc(N3CCN(C)CC3)cnc2C(C)OC)c2c3cc(ccc31)-c1csc(n1)CC(NC(=O)C1CC1C)C(=O)N1CCCC(N1)C(=O)OCC(C)(C)C2, the IC50 (second compound 0.000949 µM) is reported as > 1000 nM, the IC50 (second compound 0.003 µM) is reported as > 1000 nM and the IC50 (second compound 0.00949 µM) is reported as > 1000 nM. The IC50 (second compound 0.03 µM) was > 1000 nM, the IC50 (second compound 0.0949 µM) was > 1000 nM and the IC50 (second compound 0.3 µM) was > 1000 nM. The viability, T/C (second compound 0.000949 µM, first compound 0.00316 µM) was 124%, the viability, T/C (second compound 0.000949 µM, first compound 0.01 µM) was 106% and the viability, T/C (second compound 0.000949 µM, first compound 0.0316 µM) was 105%. It also gave a viability, T/C (second compound 0.000949 µM, first compound 0.1 µM) of 111%, a viability, T/C (second compound 0.000949 µM, first compound 0.316 µM) of 127% and a viability, T/C (second compound 0.000949 µM, first compound 1 µM) of 126%. For the same compound, the viability, T/C (second compound 0.003 µM, first compound 0.00316 µM) was 99.6%, the viability, T/C (second compound 0.003 µM, first compound 0.01 µM) was 104% and the viability, T/C (second compound 0.003 µM, first compound 0.0316 µM) was 116%. The viability, T/C (second compound 0.003 µM, first compound 0.1 µM) was 101%, the viability, T/C (second compound 0.003 µM, first compound 0.316 µM) was 114% and the viability, T/C (second compound 0.003 µM, first compound 1 µM) was 108%. For the same compound, the viability, T/C (second compound 0.00949 µM, first compound 0.00316 µM) was 101%, the viability, T/C (second compound 0.00949 µM, first compound 0.01 µM) was 112% and the viability, T/C (second compound 0.00949 µM, first compound 0.0316 µM) was 98.9%. For the same compound, the viability, T/C (second compound 0.00949 µM, first compound 0.1 µM) was 101%, the viability, T/C (second compound 0.00949 µM, first compound 0.316 µM) was 118% and the viability, T/C (second compound 0.00949 µM, first compound 1 µM) was 104%. For the same compound, the viability, T/C (second compound 0.03 µM, first compound 0.00316 µM) was 106%, the viability, T/C (second compound 0.03 µM, first compound 0.01 µM) was 112% and the viability, T/C (second compound 0.03 µM, first compound 0.0316 µM) was 103%. It also gave a viability, T/C (second compound 0.03 µM, first compound 0.1 µM) of 121%, a viability, T/C (second compound 0.03 µM, first compound 0.316 µM) of 110% and a viability, T/C (second compound 0.03 µM, first compound 1 µM) of 110%. It also gave a viability, T/C (second compound 0.0949 µM, first compound 0.00316 µM) of 111%, a viability, T/C (second compound 0.0949 µM, first compound 0.01 µM) of 117% and a viability, T/C (second compound 0.0949 µM, first compound 0.0316 µM) of 117%. The viability, T/C (second compound 0.0949 µM, first compound 0.1 µM) was 116%, the viability, T/C (second compound 0.0949 µM, first compound 0.316 µM) was 120% and the viability, T/C (second compound 0.0949 µM, first compound 1 µM) was 110%. It also gave a viability, T/C (second compound 0.3 µM, first compound 0.00316 µM) of 123%, a viability, T/C (second compound 0.3 µM, first compound 0.01 µM) of 111% and a viability, T/C (second compound 0.3 µM, first compound 0.0316 µM) of 100%. For the same compound, the viability, T/C (second compound 0.3 µM, first compound 0.1 µM) was 116%, the viability, T/C (second compound 0.3 µM, first compound 0.316 µM) was 111% and the viability, T/C (second compound 0.3 µM, first compound 1 µM) was 99.7%.
`CC1(C)CCC(Nc2ncc(C(F)(F)F)c(-c3c[nH]c4c(P(C)(C)=O)c(C#N)ccc34)n2)CN1` (stereo unspecified) + CCn1c(-c2cc(N3CCN(C)CC3)cnc2C(C)OC)c2c3cc(ccc31)-c1csc(n1)CC(NC(=O)C1CC1C)C(=O)N1CCCC(N1)C(=O)OCC(C)(C)C2 showed an IC50 (second compound 0.000949 µM) of 2.87 nM, an IC50 (second compound 0.003 µM) of 2.98 nM and an IC50 (second compound 0.00949 µM) of 3.56 nM. It also gave an IC50 (second compound 0.03 µM) of 2.5 nM, an IC50 (second compound 0.0949 µM) of 3.54 nM and an IC50 (second compound 0.3 µM) of 2.87 nM. For the same compound, the viability, T/C [1] was 104%, the viability, T/C [2] was 47.7% and the viability, T/C [3] was 24.2%. The viability, T/C [4] was 16.2%, the viability, T/C [5] was 17.3% and the viability, T/C [6] was 15.1%. For the same compound, the viability, T/C [7] was 79.3%, the viability, T/C [8] was 49.8% and the viability, T/C [9] was 25.2%. It also gave a viability, T/C [10] of 18.4%, a viability, T/C [11] of 16% and a viability, T/C [12] of 17.5%. It also gave a viability, T/C [13] of 83.1%, a viability, T/C [14] of 54.7% and a viability, T/C [15] of 23.2%. For the same compound, the viability, T/C [16] was 15.7%, the viability, T/C [17] was 17.8% and the viability, T/C [18] was 17.8%. The viability, T/C [19] was 83.3%, the viability, T/C [20] was 43.7% and the viability, T/C [21] was 23.4%. For the same compound, the viability, T/C [22] was 19.8%, the viability, T/C [23] was 17.5% and the viability, T/C [24] was 18.3%. For the same compound, the viability, T/C [25] was 81.3%, the viability, T/C [26] was 54% and the viability, T/C [27] was 26.2%. The viability, T/C [28] was 19.4%, the viability, T/C [29] was 18.1% and the viability, T/C [30] was 16.6%. For the same compound, the viability, T/C [31] was 78.5%, the viability, T/C [32] was 48.9% and the viability, T/C [33] was 23.7%. The viability, T/C [34] was 18.4%, the viability, T/C [35] was 16% and the viability, T/C [36] was 17.2%.
With `CCc1c2c(nc3ccc(O)cc13)-c1cc3c(c(=O)n1C2)COC(=O)[C@]3(O)CC` + CCn1c(-c2cc(N3CCN(C)CC3)cnc2C(C)OC)c2c3cc(ccc31)-c1csc(n1)CC(NC(=O)C1CC1C)C(=O)N1CCCC(N1)C(=O)OCC(C)(C)C2 the IC50 (second compound 0.000949 µM) was 3.72 nM, the IC50 (second compound 0.003 µM) was 3.54 nM and the IC50 (second compound 0.00949 µM) was 3.37 nM. The IC50 (second compound 0.03 µM) was 3.84 nM, the IC50 (second compound 0.0949 µM) was 3.78 nM and the IC50 (second compound 0.3 µM) was 3.6 nM. For the same compound, the viability, T/C [1] was 78.6%, the viability, T/C [2] was 55.3% and the viability, T/C [3] was 25.9%. The viability, T/C [4] was 8.36%, the viability, T/C [5] was 6.43% and the viability, T/C [6] was 6.55%. For the same compound, the viability, T/C [7] was 79.7%, the viability, T/C [8] was 53.8% and the viability, T/C [9] was 25.5%. For the same compound, the viability, T/C [10] was 8.25%, the viability, T/C [11] was 8.03% and the viability, T/C [12] was 5.94%. It also gave a viability, T/C [13] of 82.9%, a viability, T/C [14] of 52.6% and a viability, T/C [15] of 24.3%. The viability, T/C [16] was 9.47%, the viability, T/C [17] was 7.12% and the viability, T/C [18] was 7.62%. It also gave a viability, T/C [19] of 79.3%, a viability, T/C [20] of 56.2% and a viability, T/C [21] of 27%. The viability, T/C [22] was 9.94%, the viability, T/C [23] was 7.45% and the viability, T/C [24] was 5.98%. For the same compound, the viability, T/C [25] was 86.1%, the viability, T/C [26] was 55.3% and the viability, T/C [27] was 28%. For the same compound, the viability, T/C [28] was 9.13%, the viability, T/C [29] was 7.78% and the viability, T/C [30] was 6.37%. The viability, T/C [31] was 87.5%, the viability, T/C [32] was 55.5% and the viability, T/C [33] was 20.6%. For the same compound, the viability, T/C [34] was 9.8%, the viability, T/C [35] was 7.03% and the viability, T/C [36] was 7.37%.
